The source of these data is US8530183B2, “Zinc sensors for cellular imaging” (The Board of Regents of the University of Texas System, priority 2010, dated 2013).

Several values for one entry are separate records, joined by “and”; a condition that tells them apart may be missing. Identical values can stand only once. Entries after “also recorded” stand apart in the source; their conditions may differ. Like-named read-outs stand apart in the source and are kept apart here.

Data set [1] in a line: Competition assay of Zn2+ chelation kinetics (ZIMIR-C2 fluorescence decline after adding EDTA or DPAS). The settings on record: physiological salines, ZIMIR-C2 1 μM in Hanks Balanced Saline Solution. The protocol:
FIG. 10. […] In this competition assay, fluorescence intensity (Ex 490 nm, Em 525 nm) of ZIMIR-C2 (1 μM) in Hanks Balanced Saline Solution was recorded. The rate of fluorescence intensity decline after adding EDTA or DPAS reflects the kinetics of EDTA/Zn^2I or DPAS/Zn^2+ complexation.

Data set [2] has as its system INS-1 cells. Put plainly: Response of membrane-anchored ZIMIR to extracellular Zn2+ and decay upon Zn2+ washout. Type of data set: cell-based, rat. The settings on record: INS-1 cells labeled with ZIMIR, EDTA 10 μM plus DPAS at low micromolar concentrations. As for the experimental part:
FIGS. 5A-B. Membrane anchored ZIMIR reports changes of [Zn^2+]e. (FIG. 5A) Example fluorescence images (Excitation 488±7.5 nm, emission 530±20 nm) of INS-1 cells labeled with ZIMIR at different [Zn^2+]e. (FIG. 5B) Quantification of the average ZIMIR fluorescence intensity along the plasma membrane (IZIMIR(PM)).
(FIG. 7A) Time courses of IZIMIR(PM) decay after washing INS-1 cells (initially bathed in FIBS containing 1 μM Zn^2+) with HBS containing EDTA (10 μM) and DPAS (0-8 μM). (FIG. 7B) ZIMIR imaging of insulin/Zn^2+ release of MIN6 cells bathed in SAB containing EDTA (10 μM) and DPAS (4 μM). Time courses of IZIMIR(PM) fluctuation of four separate regions of interest (ROI 1-4) and example ZIMIR images at different time points were shown (a-e; arrow heads highlighting local ZIMIR increases in separate ROIs at different time).
To characterize the response of membrane anchored ZIMIR to changes of extracellular Zn^2+ concentration ([Zn^2+]), the inventors varied [Zn^2+]e from low nanomolar to micromolar, using Zn^2-1 buffers containing nitrilotriacetic acid (for [Zn^2+]e<100 nM) (Hirano et al., 2000) or histidine (for [Zn^2+]e. 100 nM) (Hauser and Tsien, 2007). After recording fluorescence images at different [Zn^2+]e levels, the inventors washed cells with a nominally Zn^2+ free SAB containing 0.2 mM DPAS and followed the decay of IZIMIR(PM).
Upon membrane depolarization, ZIMIR signal increased immediately and reached a plateau before it gradually declined (FIGS. 6E-F). Unexpectedly, however, in some occasions, ZIMIR signal remained elevated even after the inventors lowered KCl concentration to the resting level (5 mM) (FIG. 9). […] In INS-1 beta cells labeled with ZIMIR, after recording ZIMIR fluorescence in solutions containing ˜1 μM of Zn2+, the inventors perifused cells with a nominally Zn^2+-free solution containing only EDTA (10 μM), or with both EDTA (10 μM) and different concentrations of DPAS.

For data set [3] the following is noted: FluoZin-3, background; read-out: Zn^2+ dissociation constant Kd(Zn^2+); cited from earlier work.
The conditions of data set [4]: FluoZin-3, background; read-out: Kd(Ca^2+); cited from earlier work.
The nature of data set [5]: Zn2+ titration of ZIMIR-C2 (fluorescence, NTA Zn2+ buffering system). The data set is classed as binding. As for the experimental part:
(§1) FIGS. 3A-D. (FIG. 3A) Absorption spectrum of ZIMIR-C2. (FIG. 3B) Zn^2+ dependent fluorescence enhancement of ZIMIR-C2. Zn^2+ concentrations (nM) were 0, 43, 140, 440, 840, 1640 and 6440 (from bottom to top). (FIG. 3C) Zn^2+ titration of ZIMIR-C2 as measured from its emission at 515 nm. The solid line represents the exponential fit. […] All measurements were performed in buffers containing 100 mM Hepes, pH 7.5 with 0.4 μM of ZIMIR-C2.
Zn^2+ titration and ion selectivity of ZIMIR. To measure the Zn^2+ affinity of ZIMIR, we performed Zn2+ titration of ZIMIR-C2 (0.4 μM) using a Zn^2+ buffering system based on nitrilotriacetic acid (NTA) (Komatsu et al., 2005). The buffer contained 100 mM HEPES (pH 7.5), 10 mM NTA and varying concentrations of ZnSO4 (0-9 mM) to reach free Zn2+ concentration between 0.1 nM to 43 nM. Zn^2+ concentrations above 43 nM were not buffered. However, since the commercial Hepes always contains a trace amount of divalent metal (≦5 ppm), it was necessary to add a minimum amount of NTA to chelate the residual Zn^2+ present in the Hepes solution. […] From that point, increasing amount of ZnSO4 was added to reach higher Zn^2+ concentrations. […] To examine the Zn^2+ binding selectivity of ZIMIR against Ca^2+ or Mg^2+, we measured the fluorescence intensity of ZIMIR-C2 in a nominally Zn^2+ free solution containing 50 μM DPAS or in a solution containing 1 μM ZnCl2, with or without Ca^2+/Mg^2+ (1 mM).

A short description of data set [6]: Absorption, fluorescence and solubility properties of ZIMIR-C2 in aqueous solution. Type of data set: physicochemical. The protocol: as §1
The inventors synthesized ZIMIR in a total of 8 steps (FIG. 2). […] The absorption maximum of ZIMIR-C2 centered around 493 nm with an extinction coefficient of 73,000 M-1 cm-1. At low nanomolar [Zn^2+], ZIMIR-C2 was nearly non-fluorescent (fluorescence quantum yield Qf (0 Zn^2+) =0.0032) (FIGS. 3A-D). Its fluorescence intensity increased with [Zn^2+]and reached a plateau at micromolar [Zn^2+], with an overall fluorescence enhancement of 70-fold upon Zn^2+ complexation (Qf (Zn^2+) =0.225), providing a Zn^2+ binding dissociation constant of 0.45 μM (FIG. 3C). To confirm that

The nature of data set [7]: Zn2+ binding selectivity of ZIMIR-C2 against Ca2+ or Mg2+ (fluorescence intensity). The note with it: Ca^2+ 1 mM, Mg^2+ 1 mM; with or without 1 μM ZnCl2. As for the experimental part: as §1
Zn^2+ titration and ion selectivity of ZIMIR. To measure the Zn^2+ affinity of ZIMIR, we performed Zn2+ titration of ZIMIR-C2 (0.4 μM) using a Zn^2+ buffering system based on nitrilotriacetic acid (NTA) (Komatsu et al., 2005). The buffer contained 100 mM HEPES (pH 7.5), 10 mM NTA and varying concentrations of ZnSO4 (0-9 mM) to reach free Zn2+ concentration between 0.1 nM to 43 nM. Zn^2+ concentrations above 43 nM were not buffered. However, since the commercial Hepes always contains a trace amount of divalent metal (≦5 ppm), it was necessary to add a minimum amount of NTA to chelate the residual Zn^2+ present in the Hepes solution. […] To examine the Zn^2+ binding selectivity of ZIMIR against Ca^2+ or Mg^2+, we measured the fluorescence intensity of ZIMIR-C2 in a nominally Zn^2+ free solution containing 50 μM DPAS or in a solution containing 1 μM ZnCl2, with or without Ca^2+/Mg^2+ (1 mM).

In data set [8] the test system is pancreatic islets. Put plainly: Confocal imaging of dye uptake and insulin/Zn2+ release in pancreatic islets. Type of data set: cell-based, mouse. The settings on record: ZIMIR 2 μM for 25 min; mouse and human islets. The protocol: FIGS. 8A-C. Imaging insulin/Zn^2+ release in islets by confocal laser scanning microscopy. (FIGS. 8A-B) Confocal images of mouse islets labeled with ZIMIR (FIG. 8A) or calcein/AM (FIG. 8B). (FIG. 8C) Confocal ZIMIR imaging of insulin/Zn^2+ release in a mouse islet bathed in SAB. Images from two example layers 15 μm apart before and 10 sec post KCl (40 mM) stimulation were shown.
FIG. 11. ZIMIR rapidly labels cells of intact human islets. Representative CLSM images of a ZIMIR labeled human islet at three focal planes 20 μm apart.
Islets labeling and ZIMIR imaging by confocal laser scanning microscopy. Experiments with rodent animals were carried out according to protocols approved by the Institutional Animal Care and Use Committee of University of Texas Southwestern Medical Center. Rodent islets were isolated from Sprague-Dawley rats or C57BL/6 mice after digesting exocrine tissues of pancreas using collagenase as described below. To image insulin release in islets, the inventors labeled islets with ZIMIR (final concentration 2 μM with 0.025% Pluronic) in SAB buffer for […]. Labeled islets were then transferred to an imaging dish that had been coated with 0.5% PuraMatrix peptide hydrogel (BD Biosciences, Cat # 354250). Islets adhered to the PuraMatrix hydrogel within 5 min. They then imaged ZIMIR fluorescence by confocal laser scanning microscopy using a LSM510 imaging system (Carl Zeiss) and a 40× oil immersion objective (Dakin and Li, 2007).
Confocal imaging of ZIMIR uptake and insulin/Zn^2+ release in pancreatic islets. In addition to cultured cells, ZIMIR also rapidly and noninvasively labels cells in preparations such as dissected pancreatic islets. After loading islets with ZIMIR (2 μM) for 25 min, the inventors applied CLSM to track the distribution of ZIMIR in three dimensions (3D). […] The result confirmed that ZIMIR readily diffused through the interstitial space to reach interior cells, whereas calcein/AM was trapped by cells in the outer layer, unable to penetrate any deeper. After labeling, the inventors depolarized cells with high concentration of KCl.

With `O=S(=O)(O)CCN(Cc1ccccn1)Cc1ccccn1` [DPAS, 2-[Bis(2-pyridinylmethyl)amino]-ethanesulfonic acid], the “Zn^2+ chelation kinetics compared with EDTA” value in data set [1] is “much faster kinetics than EDTA”. Also, in data set [2], the “increase of the rate of Zn^2+ dissipation from the plasma membrane” value is listed as “about one order of magnitude”.
With `COc1ccc(N(CC(=O)O)CC(=O)O)c(OCCOc2cc(-c3c4cc(F)c(=O)cc-4oc4cc(O)c(F)cc34)ccc2NCC(=O)O)c1` [FluoZin-3], the Kd is 0.015 µM in data set [3] and around 10 µM in data set [4].
Turning to `CCN(CC(=O)O)Cc1c2oc3c(CN(CC)CC(=O)O)c(O)ccc3c(-c3cc(NCCN(CCc4ccccn4)Cc4ccccn4)ccc3C(=O)O)c-2ccc1=O` [ZIMIR-C2], the Kd in data set [5] (0.4 μM ZIMIR-C2, 100 mM HEPES pH 7.5, two independent titrations, read-out: Kd(Zn^2+), independent Zn^2+ titrations) is 0.433 µM and 0.467 µM; in data set [5] (FIG. 3C, emission at 515 nm, read-out: Zn^2+ binding dissociation constant) it was 0.45 µM; in data set [5] (average of two titrations, 100 mM HEPES pH 7.5, read-out: average Kd(Zn^2+)), 0.45 µM. The “overall fluorescence enhancement upon Zn^2+ complexation” value in data set [5] (plateau at micromolar [Zn^2+]) was 70 fold. For the same compound, in data set [6] (100 mM Hepes, pH 7.5), the absorption maximum entry was “around 493 nm”. Also, the “aqueous solubility” value in data set [6] (aqueous solutions) is given as “highly soluble”. For the same compound, the extinction coefficient in data set [6] (at absorption maximum) was 73,000 M-1 cm-1. The “fluorescence quantum yield Qf (0 Zn^2+)” value in data set [6] (low nanomolar [Zn^2+]) stood at 0.0032. The “fluorescence quantum yield Qf (Zn^2+)” value in data set [6] (upon Zn^2+ complexation, micromolar [Zn^2+]) is 0.225. Moreover, the “effect of Ca^2+ and Mg^2+ on fluorescence / Zn^2+ selectivity” value in data set [7] was “neither Ca^2+ nor Mg^2+ affected ZIMIR-C2 fluorescence; also recorded: binds Zn^2+ selectively against Ca^2+ (1 mM) and Mg^2+ (1 mM)”.
Take calcein/AM [reference compound]: the “distribution of dye in islets (3D, CLSM)” value in data set [8] is “only labeled cells of the superficial layers”.
